Laboratory results published in ChEMBL document CHEMBL1933012, “Design and diversity-oriented synthesis of novel 1,4-thiazepan-3-ones fused with bioactive heterocyclic skeletons and evaluation of their antioxidant and cytotoxic activities” (Bioorg Med Chem Lett, 2012).

Key:
[1] = Cytotoxicity against mouse spleen lymphocytes assessed as cell viability at 1 mg/mL after 48 hrs by MTT assay relative to control; format: tissue-based, Lymphocyte; settings: read-out: Activity
HCT-116 = assay: Growth inhibition of human HCT116 cells at 1 mg/mL after 48 hrs by MTT assay; format: functional; settings: HCT-116, 48 h, read-out: GI

SMILES	viability at 48 h, 1 mg/mL [1] [%]	inhibition of growth at 1000 µg/mL (HCT-116) [%]
Cc1nn(-c2ccccc2)c2c1C(c1ccccc1Cl)SCC(=O)N2 (configuration not stated)	68.7	55.3
CCn1c2ccccc2c2c3c(ccc21)NC(=O)CSC3c1cccs1 (configuration not stated)	45	60.3
CCn1c2ccccc2c2c3c(ccc21)NC(=O)CSC3c1ccc(Br)cc1 (configuration not stated)	136	62
COc1ccc(C2SCC(=O)Nc3onc(C)c32)cc1OC (configuration not stated)	165	54.6
Cc1noc2c1C(c1cccs1)SCC(=O)N2 (configuration not stated)	160	62.6
COc1ccc(C2SCC(=O)Nc3onc(C)c32)cc1 (configuration not stated)	165	60.3
Cc1nn(-c2ccccc2)c2c1C(c1ccc3c(c1)OCO3)SCC(=O)N2 (configuration not stated)	66.9	51.3
Cc1ccc(C2SCC(=O)Nc3ccc4[nH]ncc4c32)cc1 (configuration not stated)	20.5	66.8
CCn1c2ccccc2c2c3c(ccc21)NC(=O)CSC3c1ccc2c(c1)OCO2 (configuration not stated)	158	51.6
Cc1noc2c1C(c1ccccc1Cl)SCC(=O)N2 (configuration not stated)	170	54.6
COc1cc(C2SCC(=O)Nc3ccc4[nH]ncc4c32)cc(OC)c1OC (configuration not stated)	166	58.2
COc1ccc(C2SCC(=O)Nc3ccc4[nH]ncc4c32)cc1 (configuration not stated)	44.8	61.8
CCn1c2ccccc2c2c3c(ccc21)NC(=O)CSC3c1ccc(OC)cc1 (configuration not stated)	51.4	58.9
Cc1nn(-c2ccccc2)c2c1C(c1cccc([N+](=O)[O-])c1)SCC(=O)N2 (configuration not stated)	154	54.3
Cc1noc2c1C(c1ccc(Br)cc1)SCC(=O)N2 (configuration not stated)	157	63
O=C1CSC(c2ccc3c(c2)OCO3)c2c(ccc3[nH]ccc23)N1 (configuration not stated)	155	55.9
COc1ccc(C2SCC(=O)Nc3c2c(C)nn3-c2ccccc2)cc1 (configuration not stated)	78.8	57.8
O=C1CSC(c2ccc(Cl)cc2)c2c(ccc3[nH]ncc23)N1 (configuration not stated)	67.9	60.9
CCn1c2ccccc2c2c3c(ccc21)NC(=O)CSC3c1ccc(C)cc1 (configuration not stated)	93.2	53.4
Cc1ccc(C2SCC(=O)Nc3onc(C)c32)cc1 (configuration not stated)	103	64.7
Cc1ccc(C2SCC(=O)Nc3c2c(C)nn3-c2ccccc2)cc1 (configuration not stated)	25.7	58.4
Cc1nn(-c2ccccc2)c2c1C(c1ccc(Cl)cc1)SCC(=O)N2 (configuration not stated)	82.3	50.2
CCn1c2ccccc2c2c3c(ccc21)NC(=O)CSC3c1ccc(OC)c(OC)c1 (configuration not stated)	101	56.2
Cc1noc2c1C(c1ccc3c(c1)OCO3)SCC(=O)N2 (configuration not stated)	87.2	50.4
Cc1nn(-c2ccccc2)c2c1C(c1ccc(Cl)cc1Cl)SCC(=O)N2 (configuration not stated)	156	53.3
O=C1CSC(c2ccc(Br)cc2)c2c(ccc3[nH]ncc23)N1 (configuration not stated)	42.6	63.4
